For this data set the following is noted: corona discharge, 20 kV.

Source text: Ionized air particles around the needle were accelerated and bombard towards the sample surface, causing electric field across the substrate. […] Later, the samples (n=5 for each group) were positioned on an anti-static mat (Bertech, 1059-2X3BKT) to increase the accuracy of the measurement. The voltmeter was grounded and was held 5 mm from the sample surface.
The particles 130, 190 were placed on a ground plate and a high voltage (20 kV) was applied between the plate and the top positive nozzle.

As for `NCC(=O)O` [glycine particles, glycine], the “charge accumulation rate and surface charge density after poling” value was “considerably higher than those before poling”.

These data come from US20250009942A1, “BIODEGRADABLE PIEZOELECTRIC NANOFIBERS” (University of Connecticut, priority 2022, published 2025).
